According to patent US10023612B2, “Method of treating endometriosis” (ValiRx PLC, priority 2011, dated 2018):
“And” between values parts separate entries of the source, which are not always exact repeats. Equal entries are not always repeated.

Tests used:
[1] = mouse, in vivo
Excerpt: Offspring from dosed females were mated and checked for fertility to determine possible inheritable effects.

endometriosis lesion = assay: First study: in-vivo model of endometriosis, tissue from K-rasV12/Ah-Cre/ROSA26R-LacZ donor mice in wild-type animals; conditions: four treated animals, injected for 21 days
Experimental: In a first study, a total of 4 treatment and 5 control animals were generated in a novel in-vivo model of endometriosis (Research Horizons, University of Cambridge, 2009 Issue 8, GB 0715635.9) K-rasV12/Ah-Cre transgenic mice were crossed with Rosa26R mice to generate KrasV12+/−/Ah-Cre+/−/ROSA26R-LacZ+/− transgenic mice. The F1 offspring were inbred to generate F2 K-rasV12+/−/Ah-Cre+/+/ROSA26R-LacZ+/+ transgenic mice. The presence of the transgenes was determined by PCR using gene specific primers for K-ras, Cre and Rosa26R-LacZ. Tissue was collected from donor animals previously treated with hormones etc. and was divided between wild-type animals that were then injected with drug or vehicle for 21 days.

[2] = test system: endometriosis lesions (plugs of uterine tissue); assay: Dose ranging prevention study, transplanted plugs of uterine tissue; type: in vivo, C57BL6 mice; conditions: for Lesion burden Ave / Lesion growth Ave: average per mouse; for Lesion burden Mean / Lesion establishment Mean / Lesion growth Mean: group mean; for Lesion burden P1 / Lesion burden P2 / Lesion burden P3 / Lesion burden P4 / Lesion burden P5 / Lesion burden P6 / Lesion growth M1 / Lesion growth M2 / Lesion growth P1 / Lesion growth P2 / Lesion growth P3 / Lesion growth P4 / Lesion establishment M1 / Lesion establishment M2 / Lesion establishment P1 / Lesion establishment P2 / Lesion establishment P3 / Lesion establishment P4: individual mouse; for Lesion establishment M1 / Lesion establishment M2 / Lesion establishment P1 / Lesion establishment P2 / Lesion establishment P3 / Lesion establishment P4: 1 or 0; for Lesion establishment Ave: per mouse
[3] = mouse, in vivo; remark: listed apart in the source
Experimental: 8-10 week old, female nulliparous C57BL6 mice were acclimatised for 1 week. A group of 10 female animals were dosed with 10 ng of peptide injected subcutaneously 3 days prior to experimentation with a control group of 10 animals treated with vehicle alone.
5 male C57BL6 animals were introduced and the females checked daily for mucous plug (before 9 a.m.). When mucous plug was recorded the females were evaluated for:
a) Length of possible pregnancy (days)
c) Anomalies in offspring

Substance: Ac-PPPHPHARIK-NH2 [ValiRx1, Ac-Pro-Pro-Pro-His-Pro-His-Ala-Arg-Ile-Lys-NH2]
- fertility of offspring from dosed females [1]: no abnormalities noted
- absence of lesion following treatment (endometriosis lesion): three showed complete absence of lesion
- lesion growth following treatment vs control group ([2]; 1 ng, 10 ng or 100 ng s.c. daily): significantly reduced
- Lesion burden Ave ([2]; 1 ng/mouse s.c. daily): 1.1 mm^2 and 1.9 mm^2 and 12.1 mm^2 and 6.5 mm^2 and 8.5 mm^2
- Lesion growth Ave ([2]; 1 ng/mouse s.c. daily): 6.5 mm^2 and 8.5 mm^2 and 1.3 mm^2 and 1.9 mm^2 and 12.1 mm^2
- Lesion burden Mean ([2]; 1 ng/mouse s.c. daily): 6.02 mm^2
- Lesion establishment Mean ([2]; 1 ng/mouse s.c. daily): 96.67%
- Lesion growth Mean ([2]; 1 ng/mouse s.c. daily): 6.23 mm^2
- Lesion burden P1 ([2]; 1 ng/mouse s.c. daily): 1.8 mm^2 and 1.1 mm^2 and 4.2 mm^2 and 15.1 mm^2 and 10.2 mm^2
- Lesion burden P2 ([2]; 1 ng/mouse s.c. daily): 0.2 mm^2 and 3.1 mm^2 and 16.7 mm^2 and 5.7 mm^2 and 10.6 mm^2
- Lesion burden P3 ([2]; 1 ng/mouse s.c. daily): 0.1 mm^2 and 2.5 mm^2 and 15.2 mm^2 and 8.0 mm^2 and 16.6 mm^2
- Lesion burden P4 ([2]; 1 ng/mouse s.c. daily): 0.0 mm^2 and 0.2 mm^2 and 17.0 mm^2 and 3.8 mm^2 (2×)
- Lesion burden P5 ([2]; 1 ng/mouse s.c. daily): 3.5 mm^2 and 1.1 mm^2 and 11.2 mm^2 and 0.2 mm^2 and 0.5 mm^2
- Lesion burden P6 ([2]; 1 ng/mouse s.c. daily): 1.1 mm^2 and 3.5 mm^2 and 8.0 mm^2 and 6.2 mm^2 and 9.4 mm^2
- Lesion growth M1 ([2]; 1 ng/mouse s.c. daily): 0.196 mm^2 and 0.503 mm^2 and 3.456 mm^2 and 1.131 mm^2 and 11.2 mm^2
- Lesion growth M2 ([2]; 1 ng/mouse s.c. daily): 6.158 mm^2 and 9.425 mm^2 and 1.131 mm^2 and 3.464 mm^2 and 8.042 mm^2
- Lesion growth P1 ([2]; 1 ng/mouse s.c. daily): 1.131 mm^2 and 4.155 mm^2 and 15.1 mm^2 and 10.18 mm^2 and 1.767 mm^2
- Lesion growth P2 ([2]; 1 ng/mouse s.c. daily): 3.142 mm^2 and 16.74 mm^2 and 5.694 mm^2 and 10.56 mm^2 and 0.196 mm^2
- Lesion growth P3 ([2]; 1 ng/mouse s.c. daily): 2.545 mm^2 and 15.21 mm^2 and 8.042 mm^2 and 16.62 mm^2 and 0.126 mm^2
- Lesion growth P4 ([2]; 1 ng/mouse s.c. daily): 3.801 mm^2 (2×) and 0.196 mm^2 and 16.96 mm^2
- Lesion establishment M1 ([2]; 1 ng/mouse s.c. daily): 1
- Lesion establishment M2 ([2]; 1 ng/mouse s.c. daily): 1
- Lesion establishment P1 ([2]; 1 ng/mouse s.c. daily): 1
- Lesion establishment P2 ([2]; 1 ng/mouse s.c. daily): 1
- Lesion establishment P3 ([2]; 1 ng/mouse s.c. daily): 1
- Lesion establishment P4 ([2]; 1 ng/mouse s.c. daily): 1 (4×) and 0
- Lesion establishment Ave ([2]; 1 ng/mouse s.c. daily): 100% (4×) and 83.33%
- Lesion burden Ave ([2]; 10 ng/mouse s.c. daily): 2.9 mm^2 and 6.7 mm^2 and 11.3 mm^2 and 3.3 mm^2 and 3.5 mm^2
- Lesion growth Ave ([2]; 10 ng/mouse s.c. daily): 2.9 mm^2 and 6.7 mm^2 and 11.3 mm^2 and 3.3 mm^2 and 4.2 mm^2
- Lesion burden Mean ([2]; 10 ng/mouse s.c. daily): 5.53 mm^2
- Lesion establishment Mean ([2]; 10 ng/mouse s.c. daily): 96.67%
- Lesion growth Mean ([2]; 10 ng/mouse s.c. daily): 5.72 mm^2
- Lesion burden P1 ([2]; 10 ng/mouse s.c. daily): 1.0 mm^2 and 7.3 mm^2 and 12.6 mm^2 and 3.1 mm^2 and 1.1 mm^2
- Lesion burden P2 ([2]; 10 ng/mouse s.c. daily): 3.5 mm^2 (2×) and 10.0 mm^2 and 7.0 mm^2 and 2.5 mm^2
- Lesion burden P3 ([2]; 10 ng/mouse s.c. daily): 10.9 mm^2 and 4.5 mm^2 and 9.6 mm^2 and 3.5 mm^2 (2×)
- Lesion burden P4 ([2]; 10 ng/mouse s.c. daily): 1.0 mm^2 and 6.7 mm^2 and 5.4 mm^2 and 3.0 mm^2 and 0.0 mm^2
- Lesion burden P5 ([2]; 10 ng/mouse s.c. daily): 1.0 mm^2 and 7.1 mm^2 and 21.1 mm^2 and 3.5 mm^2 and 4.0 mm^2
- Lesion burden P6 ([2]; 10 ng/mouse s.c. daily): 0.2 mm^2 and 4.5 mm^2 and 12.1 mm^2 and 3.1 mm^2 and 9.7 mm^2
- Lesion growth M1 ([2]; 10 ng/mouse s.c. daily): 0.95 mm^2 and 7.069 mm^2 and 21.11 mm^2 and 3.464 mm^2 and 3.958 mm^2
- Lesion growth M2 ([2]; 10 ng/mouse s.c. daily): 0.196 mm^2 and 4.524 mm^2 and 12.06 mm^2 and 3.142 mm^2 and 9.66 mm^2
- Lesion growth P1 ([2]; 10 ng/mouse s.c. daily): 0.95 mm^2 and 7.288 mm^2 and 12.57 mm^2 and 3.142 mm^2 and 1.131 mm^2
- Lesion growth P2 ([2]; 10 ng/mouse s.c. daily): 3.464 mm^2 (2×) and 10.02 mm^2 and 7.037 mm^2 and 2.545 mm^2
- Lesion growth P3 ([2]; 10 ng/mouse s.c. daily): 10.95 mm^2 and 4.524 mm^2 and 9.621 mm^2 and 3.464 mm^2 (2×)
- Lesion growth P4 ([2]; 10 ng/mouse s.c. daily): 0.95 mm^2 and 6.739 mm^2 and 5.372 mm^2 and 2.969 mm^2
- Lesion establishment M1 ([2]; 10 ng/mouse s.c. daily): 1
- Lesion establishment M2 ([2]; 10 ng/mouse s.c. daily): 1
- Lesion establishment P1 ([2]; 10 ng/mouse s.c. daily): 1
- Lesion establishment P2 ([2]; 10 ng/mouse s.c. daily): 1
- Lesion establishment P3 ([2]; 10 ng/mouse s.c. daily): 1
- Lesion establishment P4 ([2]; 10 ng/mouse s.c. daily): 1 (4×) and 0
- Lesion establishment Ave ([2]; 10 ng/mouse s.c. daily): 100% (4×) and 83.33%
- Lesion burden Ave ([2]; 100 ng/mouse s.c. daily): 11.8 mm^2 and 1.8 mm^2 and 3.2 mm^2 and 3.0 mm^2 and 2.9 mm^2
- Lesion growth Ave ([2]; 100 ng/mouse s.c. daily): 11.8 mm^2 and 1.8 mm^2 and 3.2 mm^2 and 3.0 mm^2 and 2.9 mm^2
- Lesion burden Mean ([2]; 100 ng/mouse s.c. daily): 4.52 mm^2
- Lesion establishment Mean ([2]; 100 ng/mouse s.c. daily): 100.00%
- Lesion growth Mean ([2]; 100 ng/mouse s.c. daily): 4.52 mm^2
- Lesion burden P1 ([2]; 100 ng/mouse s.c. daily): 7.0 mm^2 and 4.5 mm^2 and 2.8 mm^2 and 2.0 mm^2 and 1.5 mm^2
- Lesion burden P2 ([2]; 100 ng/mouse s.c. daily): 18.5 mm^2 and 2.8 mm^2 and 2.3 mm^2 and 3.1 mm^2 and 3.5 mm^2
- Lesion burden P3 ([2]; 100 ng/mouse s.c. daily): 11.0 mm^2 and 2.3 mm^2 (2×) and 3.5 mm^2 and 4.9 mm^2
- Lesion burden P4 ([2]; 100 ng/mouse s.c. daily): 8.4 mm^2 and 0.2 mm^2 and 3.8 mm^2 and 2.5 mm^2 and 1.8 mm^2
- Lesion burden P5 ([2]; 100 ng/mouse s.c. daily): 12.6 mm^2 and 1.0 mm^2 and 7.5 mm^2 and 3.8 mm^2 and 2.0 mm^2
- Lesion burden P6 ([2]; 100 ng/mouse s.c. daily): 13.2 mm^2 and 0.3 mm^2 (2×) and 2.8 mm^2 and 3.5 mm^2
- Lesion growth M1 ([2]; 100 ng/mouse s.c. daily): 12.57 mm^2 and 0.95 mm^2 and 7.548 mm^2 and 3.801 mm^2 and 2.011 mm^2
- Lesion growth M2 ([2]; 100 ng/mouse s.c. daily): 13.2 mm^2 and 0.283 mm^2 (2×) and 2.835 mm^2 and 3.464 mm^2
- Lesion growth P1 ([2]; 100 ng/mouse s.c. daily): 7.037 mm^2 and 4.453 mm^2 and 2.827 mm^2 and 2.011 mm^2 and 1.539 mm^2
- Lesion growth P2 ([2]; 100 ng/mouse s.c. daily): 18.47 mm^2 and 2.827 mm^2 and 2.27 mm^2 and 3.142 mm^2 and 3.464 mm^2
- Lesion growth P3 ([2]; 100 ng/mouse s.c. daily): 11 mm^2 and 2.27 mm^2 (2×) and 3.464 mm^2 and 4.909 mm^2
- Lesion growth P4 ([2]; 100 ng/mouse s.c. daily): 8.357 mm^2 and 0.196 mm^2 and 3.801 mm^2 and 2.545 mm^2 and 1.767 mm^2
- Lesion establishment M1 ([2]; 100 ng/mouse s.c. daily): 1
- Lesion establishment M2 ([2]; 100 ng/mouse s.c. daily): 1
- Lesion establishment P1 ([2]; 100 ng/mouse s.c. daily): 1
- Lesion establishment P2 ([2]; 100 ng/mouse s.c. daily): 1
- Lesion establishment P3 ([2]; 100 ng/mouse s.c. daily): 1
- Lesion establishment P4 ([2]; 100 ng/mouse s.c. daily): 1
- Lesion establishment Ave ([2]; 100 ng/mouse s.c. daily): 100%
- lesion establishment ([2]; range over groups of the model): 97.67%-100%
- fertility of mice [3]: does not affect their fertility
